ChEMBL document CHEMBL5550161, “Discovery of novel small molecules targeting the USP21/JAK2/STAT3 axis for the treatment of triple-negative breast cancer” (Eur J Med Chem, 2024)

Key:
Assay type in all cases: functional, cell-based
[1] = tested on: HCC1806; assay: Anti-proliferative activity against human HCC1806 cells assessed as cell growth inhibition incubated for 72 hrs by MTT assay; conditions: HCC1806, 72 h
[2] = tested on: MCF7; assay: Anti-proliferative activity against human MCF7 cells assessed as cell growth inhibition incubated for 72 hrs by MTT assay; conditions: MCF7, 72 h
[3] = tested on: Hs-578T; assay: Anti-proliferative activity against human Hs-578T cells assessed as cell growth inhibition incubated for 72 hrs by MTT assay
[4] = tested on: MDA-MB-231; assay: Anti-proliferative activity against human MDA-MB-231 cells assessed as cell growth inhibition incubated for 72 hrs by MTT assay; conditions: MDA-MB-231, 72 h

COc1cc(Br)c2c(CCNC(=O)c3ccc(F)cc3Nc3cc(OC)c(OC)c(OC)c3)c[nH]c2c1
IC50 [1]: > 100 µM
IC50 [2]: > 100 µM
IC50 [3]: > 100 µM
IC50 [4]: 58.2 µM

COc1cc(Nc2cc(F)cc(F)c2C(=O)NCCc2c[nH]c3ccccc23)cc(OC)c1OC
IC50 [1]: 3.14 µM
IC50 [2]: > 100 µM
IC50 [3]: 1.03 µM
IC50 [4]: 1.66 µM

COc1cc(Nc2cc(F)ccc2C(=O)NCCc2c[nH]c3ccc(Br)cc23)cc(OC)c1OC
IC50 [1]: 3.46 µM
IC50 [2]: 8.65 µM
IC50 [3]: 51.5 µM
IC50 [4]: 2.94 µM

COc1cc(Nc2cc(F)ccc2C(=O)NCCc2c[nH]c3ccccc23)cc(OC)c1OC
IC50 [1]: 2.4 µM
IC50 [2]: 1.44 µM
IC50 [3]: 1.46 µM
IC50 [4]: 1.03 µM

COc1cc(Nc2cccc(F)c2C(=O)NCCc2c[nH]c3ccccc23)cc(OC)c1OC
IC50 [1]: 3.25 µM
IC50 [2]: > 100 µM
IC50 [3]: 24.5 µM
IC50 [4]: 24.3 µM

COc1cc(C)c2[nH]cc(CCNC(=O)c3ccc(F)cc3Nc3cc(OC)c(OC)c(OC)c3)c2c1
IC50 [1]: 15.1 µM
IC50 [2]: > 100 µM
IC50 [3]: 19.8 µM
IC50 [4]: 2.12 µM

COc1cc(Nc2cc(F)ccc2C(=O)NCCc2c[nH]c3cc(F)ccc23)cc(OC)c1OC
IC50 [1]: 8.43 µM
IC50 [2]: 5.09 µM
IC50 [3]: 89.1 µM
IC50 [4]: 2.65 µM

COc1cc(Nc2cc(Cl)ccc2C(=O)NCCc2c[nH]c3ccccc23)cc(OC)c1OC
IC50 [1]: 1.88 µM
IC50 [2]: 2.69 µM
IC50 [3]: 13.1 µM
IC50 [4]: 2.6 µM

COc1cc(Nc2cc(F)ccc2C(=O)NCCc2c[nH]c3cccc(Cl)c23)cc(OC)c1OC
IC50 [1]: 1.82 µM
IC50 [2]: 3.26 µM
IC50 [3]: 3.02 µM
IC50 [4]: 1.99 µM

COc1cc(Nc2cc(F)c(C)cc2C(=O)NCCc2c[nH]c3ccccc23)cc(OC)c1OC
IC50 [1]: 20.2 µM
IC50 [2]: 11 µM
IC50 [3]: > 100 µM
IC50 [4]: 38.6 µM

COc1cc(Nc2cc(F)ccc2C(=O)NCCc2c[nH]c3ccc(C)cc23)cc(OC)c1OC
IC50 [1]: 7.81 µM
IC50 [2]: 8.77 µM
IC50 [3]: 55.5 µM
IC50 [4]: 2.79 µM

COc1cc(Nc2cc(F)ccc2C(=O)NCCc2c[nH]c3cccc(OC)c23)cc(OC)c1OC
IC50 [1]: 18.2 µM
IC50 [2]: 20.6 µM
IC50 [3]: 34.7 µM
IC50 [4]: 2.96 µM

COc1cc(Nc2c(F)cccc2C(=O)NCCc2c[nH]c3ccccc23)cc(OC)c1OC
IC50 [1]: > 100 µM
IC50 [2]: > 100 µM
IC50 [3]: > 100 µM
IC50 [4]: > 100 µM

COc1cc(Nc2cc(F)ccc2C(=O)NCCc2c[nH]c3cc(Cl)ccc23)cc(OC)c1OC
IC50 [1]: 8.46 µM
IC50 [2]: 12.2 µM
IC50 [3]: 57.7 µM
IC50 [4]: 3.08 µM

COc1cc(Nc2cc(F)ccc2C(=O)NCCc2c[nH]c3cc(F)c(F)cc23)cc(OC)c1OC
IC50 [1]: 20.2 µM
IC50 [2]: 50.6 µM
IC50 [3]: 27.3 µM
IC50 [4]: 1.68 µM

COc1cc(Nc2c(C)cccc2C(=O)NCCc2c[nH]c3ccccc23)cc(OC)c1OC
IC50 [1]: > 100 µM
IC50 [2]: > 100 µM
IC50 [3]: > 100 µM
IC50 [4]: > 100 µM

COc1cc(Nc2cc(F)ccc2C(=O)NCCc2c[nH]c3c(OC)cccc23)cc(OC)c1OC
IC50 [1]: 2.57 µM
IC50 [2]: > 100 µM
IC50 [3]: 2.86 µM
IC50 [4]: 20.9 µM

COc1cc(Nc2cc(F)cc(C)c2C(=O)NCCc2c[nH]c3ccccc23)cc(OC)c1OC
IC50 [1]: 70.7 µM
IC50 [2]: 29.4 µM
IC50 [3]: > 100 µM
IC50 [4]: 50.4 µM

COc1cc(Nc2cc(F)ccc2C(=O)NCCc2c[nH]c3cc(Br)ccc23)cc(OC)c1OC
IC50 [1]: 1.84 µM
IC50 [2]: 3.1 µM
IC50 [3]: 22.1 µM
IC50 [4]: 2.14 µM

COc1cc(Nc2cc(C(F)(F)F)ccc2C(=O)NCCc2c[nH]c3ccccc23)cc(OC)c1OC
IC50 [1]: 52.2 µM
IC50 [2]: 58.6 µM
IC50 [3]: 84.3 µM
IC50 [4]: 22.4 µM

COc1cc(Nc2cccc(C(F)(F)F)c2C(=O)NCCc2c[nH]c3ccccc23)cc(OC)c1OC
IC50 [1]: > 100 µM
IC50 [2]: 67 µM
IC50 [3]: > 100 µM
IC50 [4]: > 100 µM

COc1cc(Nc2ccc(Cl)cc2C(=O)NCCc2c[nH]c3ccccc23)cc(OC)c1OC
IC50 [1]: > 100 µM
IC50 [2]: > 100 µM
IC50 [3]: > 100 µM
IC50 [4]: > 100 µM

COc1cc(Nc2ccc(F)cc2C(=O)NCCc2c[nH]c3ccccc23)cc(OC)c1OC
IC50 [1]: 12.5 µM
IC50 [2]: > 100 µM
IC50 [3]: 55.8 µM
IC50 [4]: > 100 µM

COc1cc(Nc2cc(F)ccc2C(=O)NCCc2c[nH]c3cc(F)cc(F)c23)cc(OC)c1OC
IC50 [1]: 14.2 µM
IC50 [2]: 23 µM
IC50 [3]: 26.4 µM
IC50 [4]: 1.47 µM

COc1cc(Nc2cccc(Cl)c2C(=O)NCCc2c[nH]c3ccccc23)cc(OC)c1OC
IC50 [1]: > 100 µM
IC50 [2]: 41.5 µM
IC50 [3]: > 100 µM
IC50 [4]: 95.1 µM

COc1cc(Nc2c(C(=O)NCCc3c[nH]c4ccccc34)cccc2[N+](=O)[O-])cc(OC)c1OC
IC50 [1]: > 100 µM
IC50 [2]: > 100 µM
IC50 [3]: > 100 µM
IC50 [4]: 31.3 µM

COc1cc(Nc2cc(C)c(F)cc2C(=O)NCCc2c[nH]c3ccccc23)cc(OC)c1OC
IC50 [1]: 15 µM
IC50 [2]: > 100 µM
IC50 [3]: 47.8 µM
IC50 [4]: 93.7 µM

COc1cc(Nc2cccc(OC)c2C(=O)NCCc2c[nH]c3ccccc23)cc(OC)c1OC
IC50 [1]: > 100 µM
IC50 [2]: > 100 µM
IC50 [3]: > 100 µM
IC50 [4]: > 100 µM

COc1cc(Nc2cccc(C)c2C(=O)NCCc2c[nH]c3ccccc23)cc(OC)c1OC
IC50 [1]: > 100 µM
IC50 [2]: > 100 µM
IC50 [3]: > 100 µM
IC50 [4]: > 100 µM

COc1cc(Nc2cc(F)ccc2C(=O)NCCc2c[nH]c3c(C)cccc23)cc(OC)c1OC
IC50 [1]: 3.35 µM
IC50 [2]: 2.12 µM
IC50 [3]: 2.1 µM
IC50 [4]: 1.97 µM

COc1cc(Nc2ccc(C(F)(F)F)cc2C(=O)NCCc2c[nH]c3ccccc23)cc(OC)c1OC
IC50 [1]: > 100 µM
IC50 [2]: 43.3 µM
IC50 [3]: > 100 µM
IC50 [4]: 82.7 µM

COc1ccc2[nH]cc(CCNC(=O)c3ccc(F)cc3Nc3cc(OC)c(OC)c(OC)c3)c2c1
IC50 [1]: 18 µM
IC50 [2]: 23.6 µM
IC50 [3]: > 100 µM
IC50 [4]: 4.66 µM

COc1cc(Nc2cc(F)ccc2C(=O)NCCc2c[nH]c3cccc(C)c23)cc(OC)c1OC
IC50 [1]: 2.39 µM
IC50 [2]: 2.7 µM
IC50 [3]: 3.44 µM
IC50 [4]: 2.9 µM

COc1cc(Nc2cc(F)ccc2C(=O)NCCc2c[nH]c3c(C(F)(F)F)cccc23)cc(OC)c1OC
IC50 [1]: 10.5 µM
IC50 [2]: 8.98 µM
IC50 [3]: 19.4 µM
IC50 [4]: 4.03 µM

COc1cc(Nc2cc(F)ccc2C(=O)NCCc2c[nH]c3c(F)cccc23)cc(OC)c1OC
IC50 [1]: 0.4 µM
IC50 [2]: 0.53 µM
IC50 [3]: 0.76 µM
IC50 [4]: 0.37 µM

COc1cc(Nc2cc(Br)ccc2C(=O)NCCc2c[nH]c3ccccc23)cc(OC)c1OC
IC50 [1]: 4.33 µM
IC50 [2]: 3.28 µM
IC50 [3]: > 100 µM
IC50 [4]: 3.75 µM

COc1cc(Nc2c(F)cc(F)cc2C(=O)NCCc2c[nH]c3ccccc23)cc(OC)c1OC
IC50 [1]: > 100 µM
IC50 [2]: > 100 µM
IC50 [3]: > 100 µM
IC50 [4]: > 100 µM

COc1cc(Nc2cc(F)ccc2C(=O)NCCc2c[nH]c3ccc(F)cc23)cc(OC)c1OC
IC50 [1]: 2.4 µM
IC50 [2]: 1.38 µM
IC50 [3]: 1.37 µM
IC50 [4]: 0.83 µM

COc1cc(Nc2cc(F)ccc2C(=O)NCCc2c[nH]c3cccc(Br)c23)cc(OC)c1OC
IC50 [1]: 2.16 µM
IC50 [2]: 4.37 µM
IC50 [3]: 7.97 µM
IC50 [4]: 3.55 µM

COc1cc(Nc2cc(C)ccc2C(=O)NCCc2c[nH]c3ccccc23)cc(OC)c1OC
IC50 [1]: 26.5 µM
IC50 [2]: > 100 µM
IC50 [3]: > 100 µM
IC50 [4]: > 100 µM
